Experiments:
Format in all cases: in vivo
[1] = system: bulrush; assay: Test Example 1: herbicidal effects in preemergence treatment under submerged conditions; settings: dose 2.52 g/a
How it was run: (§1)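 Submerged conditions, 4 cm water over alluvial soil. Weeds sown and 2.5-leaf rice transplanted; compound applied preemergence to water surface, doses in g per are. Greenhouse, 25 to 30° C., three weeks, then 0–5 mortality rating.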

[2] = system: barnyardgrass; assay: as above; settings: dose 2.52 g/a
How it was run: as §1

[3] = system: ducksalad; assay: as above; settings: dose 2.52 g/a
How it was run: as §1

[4] = system: giant foxtail; assay: Test Example 4: herbicidal effect in foliage treatment; settings: dose 3.2 g/a
How it was run: (§2)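 Doses are given in grams per are of applied compound, sprayed as water-diluted emulsifiable concentrate onto foliage of 14-day-old plants grown at 25 to 30° C. Herbicidal activity was assessed visually on a rating scale after three weeks.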

[5] = system: large crabgrass; assay: as above; settings: dose 3.2 g/a
How it was run: as §2

[6] = system: beadstraw; assay: as above; settings: dose 3.2 g/a, three weeks after application
How it was run: as §2

[7] = system: posumbu knotweed; assay: as above; settings: dose 3.2 g/a
How it was run: as §2

[8] = system: water foxtail; assay: as above; settings: dose 3.2 g/a
How it was run: as §2

[9] = system: common chickweed; assay: as above; settings: dose 3.2 g/a
How it was run: as §2

[10] = system: redroot pigweed; assay: as above; settings: dose 3.2 g/a
How it was run: as §2

[11] = system: barnyardgrass; assay: as above; settings: dose 3.2 g/a
How it was run: as §2

[12] = system: common lambsquater; assay: as above; settings: dose 3.2 g/a
How it was run: as §2

[13] = system: Italian ryegrass; assay: as above; settings: dose 3.2 g/a
How it was run: as §2

[14] = system: common ragweed; assay: as above; settings: dose 3.2 g/a
How it was run: as §2

[15] = system: velvetleaf; assay: as above; settings: dose 3.2 g/a
How it was run: as §2

[16] = system: transplanted rice; assay: Test Example 1: preemergence treatment under submerged conditions, effect on crop; settings: dose 2.52 g/a
How it was run: as §1

[17] = system: bulrush; assay: Test Example 2: herbicidal effects during the vegetation period under submerged conditions; settings: treatment during the vegetation period under submerged conditions; dose 2.52 g/a
How it was run: (§3)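 Barnyardgrass, bulrush and ducksalad were co-sown in alluvial soil flooded to 4 cm and grown in a greenhouse at 25 to 30° C. At the 1- or 2-leaf stage, water-diluted emulsifiable concentrates went onto the water surface at set doses (g/a). Herbicidal effect was scored three weeks later on a graded scale.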

[18] = system: barnyardgrass; assay: as above; settings: treatment during the vegetation period under submerged conditions; dose 2.52 g/a
How it was run: as §3

[19] = system: ducksalad; assay: as above; settings: treatment during the vegetation period under submerged conditions; dose 2.52 g/a
How it was run: as §3

[20] = system: giant foxtail; assay: Test Example 3: herbicidal effects in soil treatment; settings: dose 3.2 g/a
How it was run: (§4)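 Seeds were sown in sterilized diluvial soil and covered with about 1.5 cm of soil. Compounds, formulated as emulsifiable concentrates and diluted with water, were sprayed evenly over the soil surface at set doses in g/a. Herbicidal effect was scored on a rating scale three weeks later.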

[21] = system: large crabgrass; assay: as above; settings: dose 3.2 g/a
How it was run: as §4

[22] = system: beadstraw; assay: as above; settings: dose 3.2 g/a
How it was run: as §4

[23] = system: water foxtail; assay: as above; settings: dose 3.2 g/a
How it was run: as §4

[24] = system: common chickweed; assay: as above; settings: dose 3.2 g/a
How it was run: as §4

[25] = system: redroot pigweed; assay: as above; settings: dose 3.2 g/a
How it was run: as §4

[26] = system: barnyardgrass; assay: as above; settings: dose 3.2 g/a
How it was run: as §4

[27] = system: common lambsquater; assay: as above; settings: dose 3.2 g/a
How it was run: as §4

[28] = system: Italian ryegrass; assay: as above; settings: dose 3.2 g/a
How it was run: as §4

[29] = system: common ragweed; assay: as above; settings: dose 3.2 g/a
How it was run: as §4

[30] = system: velvetleaf; assay: as above; settings: dose 3.2 g/a
How it was run: as §4

[31] = three weeks after the application

| Structure (SMILES) | B: bulrush, herbicidal effect (evaluation scale 0-5) [1] | A: barnyardgrass, herbicidal effect (evaluation scale 0-5) [2] | C: ducksalad, herbicidal effect (evaluation scale 0-5) [3] | a: transplanted rice, effect on crop (evaluation scale 0-5) [16] | B: bulrush, herbicidal effect (evaluation scale 0-5) [17] | A: barnyardgrass, herbicidal effect (evaluation scale 0-5) [18] | C: ducksalad, herbicidal effect (evaluation scale 0-5) [19] | E: giant foxtail, herbicidal effect (evaluation scale 0-5) [20] | D: large crabgrass, herbicidal effect (evaluation scale 0-5) [21] | O: beadstraw, herbicidal effect (evaluation scale 0-5) [22] | G: water foxtail, herbicidal effect (evaluation scale 0-5) [23] | N: common chickweed, herbicidal effect (evaluation scale 0-5) [24] | K: redroot pigweed, herbicidal effect (evaluation scale 0-5) [25] | A: barnyardgrass, herbicidal effect (evaluation scale 0-5) [26] | L: common lambsquater, herbicidal effect (evaluation scale 0-5) [27] | H: Italian ryegrass, herbicidal effect (evaluation scale 0-5) [28] | J: common ragweed, herbicidal effect (evaluation scale 0-5) [29] | I: velvetleaf, herbicidal effect (evaluation scale 0-5) [30] | E: giant foxtail, herbicidal effect [4, 31] | D: large crabgrass, herbicidal effect [5, 31] | further results |
| --- | --- | --- | --- | --- | --- | --- | --- | --- | --- | --- | --- | --- | --- | --- | --- | --- | --- | --- | --- | --- | --- |
| O=C1CC2(CCC2)OCN1Cc1ccccc1NS(=O)(=O)C(F)(F)F [II-61] | 5 (mortality of 90% or above (nearly complete death)) | 5 (mortality of 90% or above (nearly complete death)) | 5 (mortality of 90% or above (nearly complete death)) | 2 (mortality of at least 20% and less than 40%) | 5 (mortality of 90% or above (nearly complete death)) | 5 (mortality of 90% or above (nearly complete death)) | 5 (mortality of 90% or above (nearly complete death)) | 5 (mortality of 90% or above (nearly complete death)) | 5 (mortality of 90% or above (nearly complete death)) | 5 (mortality of 90% or above (nearly complete death)) | 5 (mortality of 90% or above (nearly complete death)) | 5 (mortality of 90% or above (nearly complete death)) | 5 (mortality of 90% or above (nearly complete death)) | 5 (mortality of 90% or above (nearly complete death)) | 5 (mortality of 90% or above (nearly complete death)) | 5 (mortality of 90% or above (nearly complete death)) | 4 (mortality of at least 70% and less than 90%) | 5 (mortality of 90% or above (nearly complete death)) |  |  | E: giant foxtail, herbicidal effect ([4]; three weeks after application): 5 (mortality of 90% or above (nearly complete death)); D: large crabgrass, herbicidal effect ([5]; three weeks after application): 4 (mortality of at least 70% and less than 90%); O: beadstraw, herbicidal effect [6]: 3 (mortality of at least 40% and less than 70%); M: posumbu knotweed, herbicidal effect ([7]; three weeks after application): 4 (mortality of at least 70% and less than 90%); G: water foxtail, herbicidal effect ([8]; three weeks after application): 5 (mortality of 90% or above (nearly complete death)); N: common chickweed, herbicidal effect ([9]; three weeks after application): 4 (mortality of at least 70% and less than 90%); K: redroot pigweed, herbicidal effect ([10]; three weeks after application): 0 (mortality of less than 5% (almost ineffective)); A: barnyardgrass, herbicidal effect ([11]; three weeks after application): 5 (mortality of 90% or above (nearly complete death)); L: common lambsquater, herbicidal effect ([12]; three weeks after application): 3 (mortality of at least 40% and less than 70%); H: Italian ryegrass, herbicidal effect ([13]; three weeks after application): 4 (mortality of at least 70% and less than 90%); J: common ragweed, herbicidal effect ([14]; three weeks after application): 3 (mortality of at least 40% and less than 70%); I: velvetleaf, herbicidal effect ([15]; three weeks after application): 5 (mortality of 90% or above (nearly complete death)) |
| CCC(=O)N(c1ccccc1CN1C(=O)CC(C)(C)OC1C)S(=O)(=O)C(F)(F)F (stereo not shown) [II-73] | 5 (mortality of 90% or above (nearly complete death)) | 5 (mortality of 90% or above (nearly complete death)) | 5 (mortality of 90% or above (nearly complete death)) | 3 (mortality of at least 40% and less than 70%) | 5 (mortality of 90% or above (nearly complete death)) | 5 (mortality of 90% or above (nearly complete death)) | 5 (mortality of 90% or above (nearly complete death)) | 5 (mortality of 90% or above (nearly complete death)) | 5 (mortality of 90% or above (nearly complete death)) | 4 (mortality of at least 70% and less than 90%) | 5 (mortality of 90% or above (nearly complete death)) | 0 (mortality of less than 5% (almost ineffective)) | 0 (mortality of less than 5% (almost ineffective)) | 5 (mortality of 90% or above (nearly complete death)) | 0 (mortality of less than 5% (almost ineffective)) | 5 (mortality of 90% or above (nearly complete death)) | 3 (mortality of at least 40% and less than 70%) | 5 (mortality of 90% or above (nearly complete death)) | 4 (mortality of at least 70% and less than 90%) | 4 (mortality of at least 70% and less than 90%) | M: posumbu knotweed, herbicidal effect [7, 31]: 4 (mortality of at least 70% and less than 90%); G: water foxtail, herbicidal effect [8, 31]: 5 (mortality of 90% or above (nearly complete death)); N: common chickweed, herbicidal effect [9, 31]: 2 (mortality of at least 20% and less than 40%); K: redroot pigweed, herbicidal effect [10, 31]: 0 (mortality of less than 5% (almost ineffective)); A: barnyardgrass, herbicidal effect [11, 31]: 5 (mortality of 90% or above (nearly complete death)); L: common lambsquater, herbicidal effect [12, 31]: 0 (mortality of less than 5% (almost ineffective)); H: Italian ryegrass, herbicidal effect [13, 31]: 5 (mortality of 90% or above (nearly complete death)); J: common ragweed, herbicidal effect [14, 31]: 2 (mortality of at least 20% and less than 40%); I: velvetleaf, herbicidal effect [15, 31]: 5 (mortality of 90% or above (nearly complete death)) |
| CCOC(=O)N(c1ccccc1CN1COC2(CCCC2)C(Br)C1=O)S(=O)(=O)C(F)(F)F (stereo not shown) [II-77] | 5 (mortality of 90% or above (nearly complete death)) | 5 (mortality of 90% or above (nearly complete death)) | 5 (mortality of 90% or above (nearly complete death)) | 0 (mortality of less than 5% (almost ineffective)) | 5 (mortality of 90% or above (nearly complete death)) | 0 (mortality of less than 5% (almost ineffective)) | 4 (mortality of at least 70% and less than 90%) |  |  |  |  |  |  |  |  |  |  |  | 1 (mortality of at least 5% and less than 20%) | 1 (mortality of at least 5% and less than 20%) | M: posumbu knotweed, herbicidal effect [7, 31]: 3 (mortality of at least 40% and less than 70%); G: water foxtail, herbicidal effect [8, 31]: 5 (mortality of 90% or above (nearly complete death)); N: common chickweed, herbicidal effect [9, 31]: 3 (mortality of at least 40% and less than 70%); K: redroot pigweed, herbicidal effect [10, 31]: 3 (mortality of at least 40% and less than 70%); A: barnyardgrass, herbicidal effect [11, 31]: 4 (mortality of at least 70% and less than 90%); L: common lambsquater, herbicidal effect [12, 31]: 4 (mortality of at least 70% and less than 90%); H: Italian ryegrass, herbicidal effect [13, 31]: 0 (mortality of less than 5% (almost ineffective)); J: common ragweed, herbicidal effect [14, 31]: 3 (mortality of at least 40% and less than 70%); I: velvetleaf, herbicidal effect [15, 31]: 3 (mortality of at least 40% and less than 70%); herbicidal effect, E: giant foxtail [20]: 1 (mortality of at least 5% and less than 20%); herbicidal effect, D: large crabgrass [21]: 5 (mortality of 90% or above (nearly complete death)); herbicidal effect, O: beadstraw [22]: 0 (mortality of less than 5% (almost ineffective)); herbicidal effect, G: water foxtail [23]: 3 (mortality of at least 40% and less than 70%); herbicidal effect, N: common chickweed [24]: 4 (mortality of at least 70% and less than 90%); herbicidal effect, K: redroot pigweed [25]: 4 (mortality of at least 70% and less than 90%); herbicidal effect, A: barnyardgrass [26]: 4 (mortality of at least 70% and less than 90%); herbicidal effect, L: common lambsquater [27]: 5 (mortality of 90% or above (nearly complete death)); herbicidal effect, H: Italian ryegrass [28]: 1 (mortality of at least 5% and less than 20%); herbicidal effect, J: common ragweed [29]: 0 (mortality of less than 5% (almost ineffective)); herbicidal effect, I: velvetleaf [30]: 5 (mortality of 90% or above (nearly complete death)) |

Reference: patent US20120029187A1, “HALOALKYLSULFONANILIDE DERIVATIVE” (Nissan Chemical Industries, Ltd., priority 2009, published 2012)
